Test results as given in PMC3446790 (Cellular signalling, 2010).
“Also recorded” adds a separate entry of the source.

Key:
S1P4 [1] = target: T1, S1P4 (Homo sapiens, UniProt O95977); test: Antagonism of S1P-induced Ca2+ mobilization in S1P4-expressing HTC4 cells; format: cell-based
T1 sequence (O95977 1-384): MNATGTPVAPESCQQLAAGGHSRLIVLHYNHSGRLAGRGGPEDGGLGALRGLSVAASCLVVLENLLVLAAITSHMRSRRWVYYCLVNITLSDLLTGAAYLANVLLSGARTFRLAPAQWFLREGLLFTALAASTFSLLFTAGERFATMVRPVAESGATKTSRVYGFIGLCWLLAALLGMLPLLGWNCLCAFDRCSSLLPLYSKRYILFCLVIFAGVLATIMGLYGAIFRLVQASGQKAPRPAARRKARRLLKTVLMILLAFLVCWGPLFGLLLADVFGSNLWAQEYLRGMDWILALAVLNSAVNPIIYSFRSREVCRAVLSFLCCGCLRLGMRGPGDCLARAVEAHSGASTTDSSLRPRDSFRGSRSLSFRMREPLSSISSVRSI

S1P1 [2] = target: T2, S1P1 (Homo sapiens, UniProt P21453); test: Antagonism of S1P-induced Ca2+ mobilization in S1P1-expressing HTC4 cells; format: cell-based
S1P1-eGFP = S1P1-eGFP (Homo sapiens, UniProt P21453); format: cell-based; settings: 100 nM, 30 min, HEK293
S1P4 [3] = target: T1, S1P4; test: Ca2+ mobilization; format: cell-based; settings: Ca2+ mobilization, concentrations up to 10 μM
S1P3 [4] = target: T3, S1P3 (Homo sapiens, UniProt Q99500); test: Antagonism of S1P-induced Ca2+ mobilization in S1P3-expressing HTC4 cells; format: cell-based
T3 sequence (Q99500 whole entry, species assumed): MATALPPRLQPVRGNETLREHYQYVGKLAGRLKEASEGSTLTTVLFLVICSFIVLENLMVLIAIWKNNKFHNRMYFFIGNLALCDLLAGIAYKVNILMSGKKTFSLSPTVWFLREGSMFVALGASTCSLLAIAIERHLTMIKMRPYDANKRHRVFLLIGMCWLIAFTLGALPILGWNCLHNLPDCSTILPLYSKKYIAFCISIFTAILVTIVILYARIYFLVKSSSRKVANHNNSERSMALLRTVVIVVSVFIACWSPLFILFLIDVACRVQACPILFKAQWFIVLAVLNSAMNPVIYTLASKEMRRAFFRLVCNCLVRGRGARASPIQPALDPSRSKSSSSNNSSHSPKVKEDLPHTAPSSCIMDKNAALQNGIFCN

recombinant ATX = recombinant ATX (Homo sapiens, UniProt Q13822); test: ATX assay; format: biochemical; settings: FS-3 substrate
C57BL/6 mice = test: Whole blood lymphocyte counting in mice; format: in vivo; settings: 1 mg/kg intraperitoneal
[5] = test system: ERK1/2 and AKT in IEC-6 cells; test: Immunoblot analysis of ERK1/2 and AKT phosphorylation; format: cell-based, rat
S1P1 [6] = target: T2, S1P1; test: Receptor desensitization assay in S1P1-expressing HTC4 cells; format: cell-based; settings: 300 nM, 2 h preincubation
S1P5 [7] = target: T4, S1P5 (Homo sapiens, UniProt Q9H228); test: Ca2+ mobilization; format: cell-based; settings: concentrations up to 10 μM
T4 sequence (Q9H228 whole entry, species assumed): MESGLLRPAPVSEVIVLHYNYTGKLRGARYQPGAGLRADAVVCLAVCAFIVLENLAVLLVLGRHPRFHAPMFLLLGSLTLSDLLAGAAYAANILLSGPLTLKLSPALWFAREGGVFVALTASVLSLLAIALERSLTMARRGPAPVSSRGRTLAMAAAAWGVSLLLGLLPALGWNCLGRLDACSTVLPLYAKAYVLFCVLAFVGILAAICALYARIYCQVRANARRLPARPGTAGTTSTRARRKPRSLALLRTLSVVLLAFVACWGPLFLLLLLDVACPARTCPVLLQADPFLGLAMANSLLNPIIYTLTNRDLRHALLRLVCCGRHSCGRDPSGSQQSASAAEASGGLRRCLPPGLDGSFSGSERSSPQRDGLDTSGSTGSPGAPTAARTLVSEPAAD

sphingosine kinase 1 = settings: cited from earlier work
S1P1 [8] = target: T2, S1P1; test: Ca2+ mobilization; format: cell-based; settings: Ca2+ mobilization, concentrations up to 10 μM
IEC-6 cells = test: DNA fragmentation ELISA, camptothecin-induced apoptosis; format: cell-based, rat
S1P2 [9] = target: T5, S1P2 (Homo sapiens, UniProt O95136); test: Ca2+ mobilization; format: cell-based; settings: concentrations up to 10 μM
T5 sequence (O95136 whole entry, species assumed): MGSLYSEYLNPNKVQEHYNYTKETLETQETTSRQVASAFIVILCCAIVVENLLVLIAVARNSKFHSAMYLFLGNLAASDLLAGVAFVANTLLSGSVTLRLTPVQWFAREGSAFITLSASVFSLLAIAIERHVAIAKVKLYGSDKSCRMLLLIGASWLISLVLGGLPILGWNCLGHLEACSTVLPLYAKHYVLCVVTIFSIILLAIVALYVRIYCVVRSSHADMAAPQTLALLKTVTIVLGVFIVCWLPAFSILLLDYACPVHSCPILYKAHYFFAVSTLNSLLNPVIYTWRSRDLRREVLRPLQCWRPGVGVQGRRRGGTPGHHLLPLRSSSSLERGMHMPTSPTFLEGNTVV

S1P5 [10] = target: T4, S1P5; test: Antagonism of S1P-induced Ca2+ mobilization in S1P5-expressing HTC4 cells; format: cell-based
P2Y10/Gα16 = P2Y10/Gα16 (Homo sapiens, UniProt O00398+P30679); test: Antagonism of S1P-induced Ca2+ mobilization in CHO cells expressing P2Y10/Gα16; format: cell-based
LPA1,2,3,4,5 and GPR87 = test: Ca2+ mobilization in cells transfected with LPA receptors; format: cell-based; settings: data not shown
S1P3 [11] = target: T3, S1P3; test: Ca2+ mobilization; format: cell-based; settings: Ca2+ mobilization, concentrations up to 10 μM
S1P2 [12] = target: T5, S1P2; test: Antagonism of S1P-induced Ca2+ mobilization in S1P2-expressing HTC4 cells; format: cell-based
[13] = shift of S1P dose response curve

Structure (SMILES): CCCCCCCCc1ccc(CC[C@](N)(/C=C/P(=O)(O)O)CO)cc1 [(S)-ene, (S)-FTY720-vinylphosphonate]
- antagonist character at S1P4 (S1P4 [1]; S1P near EC70): full antagonist
- Ki (S1P4 [1]; read-out: Ki, S1P4, cotreated with 5 nM S1P, ± SD): 1190 nM
- antagonist character at S1P1 (S1P1 [2]; S1P near EC70): full antagonist
- pKb, S1P1 (Schild analysis) (S1P1 [2]; average residual error 1.09): 7.10 M
- Ki (S1P1 [2]; read-out: Ki, S1P1, cotreated with 3 nM S1P, ± SD): 384 nM
- mechanism of antagonism, S1P1 (S1P1 [2]; [13]): competitive inhibition
- S1P1-eGFP receptor internalization (S1P1-eGFP): failed to cause redistribution; also recorded: did not induce; also recorded: failed to cause receptor internalization
- S1P4 activation (in words) (S1P4 [3]): failed to activate
- antagonist character at S1P3 (S1P3 [4]; S1P near EC70): full antagonist
- pKb, S1P3 (Schild analysis) (S1P3 [4]; average residual error 0.62): 7.61 M
- Ki (S1P3 [4]; read-out: Ki, S1P3, cotreated with 10 nM S1P, ± SD): 39 nM
- mechanism of antagonism, S1P3 (S1P3 [4]; [13]): competitive inhibition
- mechanism of ATX inhibition (recombinant ATX): competitive
- Ki (recombinant ATX; read-out: Ki, ATX, affinity for free enzyme): 1000 nM
- decrease in circulating lymphocytes (C57BL/6 mice; 6 h): approximately 20%
- circulating lymphocyte counts at 24 h (C57BL/6 mice; 24 h): restored to pretreatment levels; also recorded: no significant decrease
- effect of overnight PTX treatment on ERK1/2 activation ([5]; 100 ng/mL PTX, S1P 300 nM 5 min, (S)- or (R)-ene 1 μM 10 min): no significant effect
- time of peak ERK1/2 and AKT phosphorylation ([5]; IEC-6 cells): 5 to 15 min
- ERK1/2 and AKT phosphorylation ([5]; IEC-6 cells, 100 nM): elicited ERK1/2 and AKT phosphorylation
- desensitization of the S1P1 response to S1P after preincubation (S1P1 [6]): almost no effect; also recorded: did not induce
- S1P5 activation (in words) (S1P5 [7]): failed to activate
- inhibition of sphingosine kinase 1 (sphingosine kinase 1): inhibitor
- S1P1 activation, agonist character (in words) (S1P1 [8]): did not activate
- effect of PTX treatment on the antiapoptotic action (IEC-6 cells; 100 ng/mL PTX overnight, 300 nM compound): partially inhibited
- concentration of maximal protection against DNA fragmentation (IEC-6 cells; 20 μM camptothecin 5 h, inverse bell-shape curve): 300 nM
- reduction in DNA fragmentation elicited by camptothecin (IEC-6 cells; 15 min pretreatment, 20 μM camptothecin 5 h): significant and dose-dependent reduction
- attenuation of DNA fragmentation at concentrations above 1 μM (IEC-6 cells; above 1 μM): no longer showed an attenuation
- S1P2 activation (in words) (S1P2 [9]): failed to activate
- antagonist character at S1P5 (S1P5 [10]; S1P near EC70): partial antagonist
- maximal % inhibition of the S1P response, S1P5 (S1P5 [10]; at 30, 30 nM S1P): 60.0% inhibition at 30 mM (30 nM S1P)
- inhibition of the S1P response, P2Y10 (P2Y10/Gα16; 300 nM S1P): No inhibition at 30 mM (300 nM S1P)
- inhibitory effect on P2Y10 when co-applied with S1P (P2Y10/Gα16; concentrations up to 30 μM): no inhibitory effect
- Ca2+ mobilization responses in cells transfected with LPA receptors (LPA1,2,3,4,5 and GPR87): unable to detect
- S1P3 activation (in words) (S1P3 [11]): inactive
- antagonist character at S1P2 (S1P2 [12]; S1P near EC70): partial antagonist
- maximal % inhibition of the S1P response, S1P2 (S1P2 [12]; at 30, 30 nM S1P): 40.0% inhibition at 30 mM (30 nM S1P)
